The results in this text go back to patent US4826856A, “Calcium antagonistic dihydropyridine derivative” (Yason s.r.l., priority 1985, dated 1989).

Where two headings read alike, the source gives them in different places.

The test system of data set [1] is Rat thoracic aorta. In words: Inhibition of the contractile response of rat thoracic aorta strips in vitro. Particulars: for EC50: Rattus norvegicus. The method, then:
1. Inhibition of the contractile response of arterial vessels in vitro
Aortic strips (3 mm wide) were dissected from rat thoracic aorta and bathed in a Krebs-Henseleit solution bubbled with O2 :CO2 (95:5) at 38° C., under a tension of 2 g. After a 30-minutes stabilization period, a contraction was induced by adding either KCl (118 mM) or noradrenaline (10^-5 M.l^-1) in a calcium-free medium (Na EDTA 0.1 mM.l^-1) or noradrenaline (10^-5 M.l^-1) after readmission of calcium (CaCl2 1.25 mM.l^-1).

Data set [2] concerns SHR aorta. Briefly: SHR aorta pretreatment study (PE or K+ contraction). Also on record: species or system spontaneously hypertensive rat (SHR). The method, then:
1.3. SHR aorta--Pretreatment study
SHR aorta were treated with either PE(1 μM) or high potassium (K^+, 80 mM) and the resulting contraction was allowed to sustain for 15 Minutes. After wash out and equilibration (1 hour), tissues were pretreated with a single concentration of either YS 201 or nifedipine. After a 30-minutes equilibration time, tissues were again challenged with either PE or K^+ and the resultant contraction compared to the initial contraction. Contractile effect was measured at 15 minutes after the addition of the agonist (PE or K^+).

Data set [3] has as its system Sprague-Dawley rats. Briefly: Ventricular arrhythmias during coronary artery ligation period. Details: EBs, mean value of indices + SEM / VT, mean value of indices + SEM / VF, mean value of indices + SEM: scale not given here. It is filed as in vivo, rat. The method, then: (§1) Ventricular arrhythmias after coronary artery ligation in the acute phase or during the period of re-circulation
(§2) Sprague-Dawley rats were subjected to ligation of the left coronary artery according to the method of Clark et al. in J. Pharmacol. Methods 3, 357-368, 1980. The drugs were administered by gastric tube 30 minutes before the ligation. By means of a continuous electrocardiographic recording, the ventricular arrhythmias such as ectopic beats (EB), ventricular tachycardia (VT), ventricular fibrillation (VF) for 30 minutes after ligation, were recorded.

The test system of data set [4] is post-oligoemic rats. In words: Transient cerebral oligoemia in the rat, cerebral water, K+ and Ca++ content. It is filed as in vivo. Particulars: for overall activity in cerebral oligoemia: p.o. On the procedure: Transient cerebral oligoemia in the rat
The method described by Borzeix in Circulation et Metabolisme du Cerveau 1, 63-79, John Libbey Eurotext Publ. […] The animals were treated by the oral route with the tested drugs twice a day, starting one hour after the ligation and for 3 days, in scalar doses.
The last dose, at the 71th hour after the occlusion, preceeded by one hour the sacrifice of the animal, whose brain was subjected to the determination of the H2 O, K^+ and Ca^++ content.

The subject of data set [5] is Sprague-Dawley rats. In words: Ventricular arrhythmias after re-circulation. It is filed as in vivo, rat. The conditions noted are these: 5 mg/kg p.o. The method, then:
as §1, §2

A short description of data set [6]: Pharmacokinetics and bioavailability in dogs. The data set is classed as in vivo. The conditions noted are these: in vivo, 10 mg/kg, dog. On the procedure:
YS 201 hydrochloride was intravenously and orally administered to dogs at 1 and 10 mg/kg respectively.

[7] abbreviates: noradrenaline 10^-5 M.l^-1 after readmission of calcium (CaCl2 1.25 mM.l^-1), read-out: EC50, NA + Ca++ contraction, rat aorta.
The mark [8] stands for this setting: noradrenaline 10^-5 M.l^-1, calcium-free medium, read-out: EC50, NA - Ca++ contraction, rat aorta.

The term EC50 denotes the concentration needed to bring the measured effect to its halfway point. With `CCOC(=O)C1=C(C)NC(C)=C(C(=O)OC)C1c1cccc([N+](=O)[O-])c1` (stereo not drawn) [nitrendipine], the EC50 in data set [1] (setting [7]) worked out at 100 µM. The “activity on contractions induced by noradrenaline in Ca++-free medium vs YS 201” value in data set [1] (rat aorta) is reported as “slightly more active than YS 201”.
`COC(=O)C1=C(C)NC(C)=C(C(=O)OC)C1c1ccccc1[N+](=O)[O-]` [nifedipine]: the “inhibition of K+-induced contractions, SHR aortic strips” value in data set [2] is “extremely potent inhibitors”. In data set [3] (1.0 mg/kg p.o.), the Death rate % came to 0%; the “EBs, mean value of indices + SEM” value stood at 70.0 ± 24.72; the VF % was 80%; the “VF, mean value of indices + SEM” value came out at 1.1 ± 0.55. In addition, the “VT, mean value of indices + SEM” value in data set [3] (1.0 mg/kg p.o.) stood at 4.4 ± 2.22. In addition, in data set [3] (1.5 mg/kg p.o.), the Death rate % was 20.0%; the “EBs, mean value of indices + SEM” value was found to be 40.5 ± 20.19; the VF % was determined as 60%; the “VF, mean value of indices + SEM” value is reported as 1.7 ± 0.77. Moreover, the “VT, mean value of indices + SEM” value in data set [3] (1.5 mg/kg p.o.) is given as 2.1 ± 1.75.
Consider `COc1ccc(CCN(C)CCCC(C#N)(c2ccc(OC)c(OC)c2)C(C)C)cc1OC` (stereo not drawn) [verapamil], for which the “overall activity in cerebral oligoemia” value in data set [4] was “good activity”.
Turning to `COCCOC(=O)C1=C(C)NC(C)=C(C(=O)OC(C)C)C1c1cccc([N+](=O)[O-])c1` (stereo not drawn) [nimodipine], the “Cerebral content of K+” value in data set [4] (0.5 mg/kg p.o.) is 442.0 ± 22.40 mmol · kg^-1 dry weig. Moreover, the “Cerebral content of H2O” value in data set [4] (1.5 mg/kg p.o.) came out at 79.3 ± 0.40%. The “overall activity in cerebral oligoemia” value in data set [4] was “fail”. In addition, the EC50 in data set [1] (setting [8]) and in data set [1] (setting [7]) was 100 µM throughout.
On to `COc1ccc([C@@H]2Sc3ccccc3N(CCN(C)C)C(=O)[C@@H]2OC(C)=O)cc1` [diltiazem, reference compound], for which the “overall activity in cerebral oligoemia” value in data set [4] is recorded as “good activity”. Also, in data set [5], the Death rate % stood at 27.3%; the “EBs, mean value of indices + SEM” value turned out to be 68.9 ± 32.12; the VF % amounted to 45.5%; the “VF, mean value of indices + SEM” value stood at 8.8 ± 4.64. Moreover, the “VT, mean value of indices + SEM” value in data set [5] worked out at 4.2 ± 2.54.
Broadly, the AUC is concentration integrated over time. For `COC(=O)C1=C(C)NC(C)=C(C(=O)OCCN(C)Cc2ccccc2)C1c1cccc([N+](=O)[O-])c1` (stereo not drawn) [nicardipine], in data set [3] (0.5 mg/kg p.o.), the Death rate % was 0%; the “EBs, mean value of indices + SEM” value stood at 10.9; the VF % is 66.7%; the “VF, mean value of indices + SEM” value is reported as 2.5. Besides, the “VT, mean value of indices + SEM” value in data set [3] (0.5 mg/kg p.o.) stood at 2.5. In data set [3] (1.0 mg/kg p.o.), the Death rate % came out at 33.3%; the “EBs, mean value of indices + SEM” value is given as 22.0; the VF % came out at 100%; the “VF, mean value of indices + SEM” value is 0.9. Further, the “VT, mean value of indices + SEM” value in data set [3] (1.0 mg/kg p.o.) stood at 0.5. For the same compound, in data set [3] (2.0 mg/kg p.o.), the Death rate % came to 25.0%; the “EBs, mean value of indices + SEM” value is 31.9; the VF % is on record as 75%; the “VF, mean value of indices + SEM” value amounted to 1.2. Besides, in data set [3] (2.0 mg/kg p.o.), the “VT, mean value of indices + SEM” value came out at 0.7. Further, in data set [4] (1 mg/kg p.o.), the “Cerebral content of Ca++” value came to 18.4 ± 7.04 mmol · kg^-1 dry weig and the “Cerebral content of K+” value is on record as 460.0 ± 18.96 mmol · kg^-1 dry weig. For the same compound, in data set [4] (3 mg/kg p.o.), the “Cerebral content of Ca++” value is 19.4 ± 5.0 mmol · kg^-1 dry weig and the “Cerebral content of H2O” value turned out to be 79.2 ± 0.42%. Moreover, the “overall activity in cerebral oligoemia” value in data set [4] is given as “fail”. The EC50 in data set [1] (setting [8]) came to 100 µM. In addition, the AUC in data set [6] (po, same dose, read-out: AUC (converted)) is 1280 ng·h/mL. Besides, the Cmax in data set [6] (oral, read-out: maximum concentration (Cmax)) amounted to 220 ng/mL.
